Measurements from US11040949B2, “Compounds affecting pigment production and methods for treatment of bacterial diseases” (Versitech Limited, priority 2017, dated 2021).
≈ marks a conversion by molar mass, not a printed value.

Tests used:
[1] = tested on: methicillin-resistant S. aureus (MRSA); experiment: MRSA skin infection, wound closure; type: in vivo, mice; details: for wound healing compared with mupirocin and linezolid: 30 mg/kg oral BID for 7 days
Procedure: FIG. 11B are photos from the top view of mice with skin infection caused by MRSA before (at Day 0) and after different treatments (at Day 7): top left received 2% mupirocin via topical BID for 7 days; top right received 100 mg/kg linezolid via oral BID for 7 days; bottom received 30 mg/kg IM032 via oral BID for 7 days.
Visual wound healing/closure in different treatment groups of mice can be observed in FIG. 11B.

S. aureus ATCC29213 = experiment: IM032 staphyloxanthin production inhibition; type: cell-based; details: Staphylococcus aureus, ATCC 29213 / MSSA
Procedure: (§1) This study aimed to evaluate IM032 for its in vitro efficacy to inhibit the production of staphyloxanthin in different strains of S. aureus.
(§2) The negative control was dimethyl sulfoxide (DMSO) which was used to prepare stock solutions and dilutions; positive control in this test was S. aureus strain FPR3757 treated with IM032.
(§3) The test item was dissolved at 44.9 mg/mL in DMSO at 37° C., aliquoted into several tubes, and stored at −20° C. until use. On the day of testing, a stock solution was serially diluted to testing concentrations with DMSO. All solutions were vortexed and mixed with a pipette to achieve homogeneity immediately before dilution. A correction factor for purity was not applied to the test item preparations.
(§4) Each test item solution (6 μL) was combined with 0.6 mL of S. aureus culture in brain heart infusion broth (CFU per well=1×10^7). 12-wells repeats were performed for each concentration in 96-well 2-mL plates. The plates were then incubated in a shaker at 37° C., 250 rpm for 24 hours. The bacteria were centrifuged at 4,000 rpm for 10 min. Next, the bacteria from 4-wells were combined and were washed twice with PBS. Staphyloxanthin was extracted with 300 μL of methanol in a water bath at 60° C. for 1 hour. After centrifugation, 100 μL of supernatant was transferred to a 96-well cell culture plate and OD450 was measured. The relative pigment production at each tested concentration was calculated as follows: […]
(§5) The IC50 for each test was determined based on the calculated inhibition ratio from above with Prism 6.0 by employing a non-linear regression (four parameters) fitting method with assigned bottom and top at 0.05 and 0.95 respectively. The IC50 presented is the best-fit value.
(§6) S. aureus strains (ATCC29213, HG003, Mu3, SH1000, and COL) were treated with IM032 at final concentrations of 4,000, 1,000, 250, 63, 16, 4 and 1 nM (FIG. 7A). S. aureus strains (JE2, USA300-3, LAC, ST239III and Newman) were treated with IM032 at final concentrations of 250, 63, 16, 4, 1, 0.2 and 0.06 nM (FIG. 7B). […] The determined IC50 values of the tested strains range from 1.2 to 70 nM (Tables 6 and 7).

S. aureus LAC = experiment: IM032 staphyloxanthin production inhibition; type: cell-based; details: Staphylococcus aureus
Procedure: as §1, §2, §3, §4, §5, §6

S. aureus HG003 = experiment: IM032 staphyloxanthin production inhibition; type: cell-based; details: Staphylococcus aureus, MSSA
Procedure: as §1, §2, §3, §4, §5, §6

S. aureus JE2 = experiment: IM032 staphyloxanthin production inhibition; type: cell-based; details: Staphylococcus aureus
Procedure: as §1, §2, §3, §4, §5, §6

S. aureus SH1000 = experiment: IM032 staphyloxanthin production inhibition; type: cell-based; details: Staphylococcus aureus, MSSA
Procedure: as §1, §2, §3, §4, §5, §6

S. aureus ST239III = experiment: IM032 staphyloxanthin production inhibition; type: cell-based; details: Staphylococcus aureus, MRSA
Procedure: as §1, §2, §3, §4, §5, §6

S. aureus Mu3 = experiment: IM032 staphyloxanthin production inhibition; type: cell-based; details: Staphylococcus aureus
Procedure: as §1, §2, §3, §4, §5, §6

S. aureus FPR3757 = experiment: IM032 staphyloxanthin production inhibition; type: cell-based; details: Staphylococcus aureus
Procedure: as §1, §2, §3, §4, §5, §6

S. aureus USA300 = experiment: In vitro staphyloxanthin production inhibition by NP-16 analogues; type: cell-based, Staphylococcus aureus; details: S. aureus USA300, methanol extract OD 450 nm, 300 nM to 700 nM
Procedure: Evaluation of NP-16 analogues in Staphyloxanthin production
The in vitro pigment inhibition studies were performed by S. aureus USA300 cultured in BHI with or without the presence of inhibitor compounds at 37° C. and 250 rpm for 36-48 hours. The bacteria were washed twice with PBS prior to the staphyloxanthin purification with methanol. The OD of the extracts were monitor at 450 nm using DTX880 multi-plate reader spectrophotometer (Beckman). The concentration range tested for the compounds were between 300 nM to 700 nM, and control groups were added with equal volume of DMSO.
The cytotoxicity of NP-16 and some of its analogues was tested against Raw 264.7 cells, and the cell tolerance of each compounds were documented in Table 3. Along with the in vitro staphyloxanthin production of the NP-16 analogues were being tested, the compounds can exert staphyloxanthin production inhibition. The staphyloxanthin from the overnight-cultured bacteria were extracted with methanol and quantified in via spectrophotometry. The results were presented in relative ratio to NP-16 in both the inhibition ratio as well as the TC50 (concentration for decreasing cell viability by 50%) in Table 3 (sample names correspond to those listed in Table 1).

[2] = tested on: 10 different Staphylococcus aureus (S. aureus) strains; experiment: IM032 staphyloxanthin production inhibition, all tested strains; type: cell-based
Procedure: as §1
Compound IM032 was evaluated for its in vitro efficacy to inhibit staphyloxanthin production in 10 different Staphylococcus aureus (S. aureus) strains, SH1000, HG003, ATCC29213, ATCC700698, COL, JE2, LAC, USA300-3, Newman and ST239III.
as §2
The test item was dissolved at 44.9 mg/mL in DMSO at 37° C., aliquoted into several tubes, and stored at −20° C. until use. On the day of testing, a stock solution was serially diluted to testing concentrations with DMSO. […]
Each test item solution (6 μL) was combined with 0.6 mL of S. aureus culture in brain heart infusion broth (CFU per well=1×10^7). […] After centrifugation, 100 μL of supernatant was transferred to a 96-well cell culture plate and OD450 was measured. The relative pigment production at each tested concentration was calculated as follows: […]
The IC50 for each test was determined based on the calculated inhibition ratio from above with Prism 6.0 by employing a non-linear regression (four parameters) fitting method with assigned bottom and top at 0.05 and 0.95 respectively. […]

[3] = Solubility in commonly used solvents for oral administration; type: physicochemical

With `O=C(/C=C/c1ccccc1Br)Nc1ccc(S(=O)(=O)N2CCCCC2)cc1` [NP16-XL-016, 3-(6-bromophenyl)-N-[4-(1-piperidine-1-sulfonyl)phenyl]-acrylamide] as the molecule, how does the “wound healing compared with mupirocin and linezolid” value ([1]; listed as ALS-4) read?
Its value is “statistically significant improvement in wound healing”.

And the “wound healing compared with mupirocin and linezolid” value ([1]; listed as IM032)?
Its value is “best visual wound healing”.

And the “percentage of wound closure” value ([1]; 30 mg/kg oral twice a day, Day 7)?
Its value is 63.8%.

What about the IC50 (S. aureus ATCC29213; Table 6) of the same molecule?
The IC50 was 18 nM.

And the IC50 (S. aureus ATCC29213; Table 8)?
The IC50 was 30 ± 5 nM.

What about the IC50 (S. aureus LAC; MRSA) of the same molecule?
The IC50 was 27 nM.

What about the IC50 (S. aureus LAC; MRSA / USA300) of the same molecule?
The IC50 was 43.6 ± 5 nM.

And the IC50 (S. aureus HG003; Table 6)?
The IC50 was 46 nM.

And the IC50 (S. aureus HG003; Table 8)?
The IC50 was 54.4 ± 4 nM.

And the IC50 (S. aureus JE2; / USA300)?
The IC50 was 37.7 ± 4 nM.

And the IC50 (S. aureus JE2; MRSA)?
Its IC50 is 26 nM.

What about the IC50 (S. aureus SH1000; Table 6) of the same molecule?
Its IC50 is 70 nM.

And the IC50 (S. aureus SH1000; Table 8)?
The IC50 was 70.5 ± 6 nM.

And the IC50 (S. aureus ST239III; Table 7, ST239III, MRSA (HA))?
Its IC50 is 19 nM.

What about the IC50 (S. aureus ST239III; Table 8, Clinical isolate ST239III, HA-MRSA) of the same molecule?
The IC50 was 16.3 ± 8 nM.

And the IC50 (S. aureus Mu3; MU3)?
Its IC50 is 1.8 nM.

What about the IC50 (S. aureus Mu3; VISA) of the same molecule?
The IC50 was 2.6 ± 1 nM.

And the IC50 (S. aureus FPR3757; FPR3757, FPR3757, previous study)?
The IC50 was 17 nM.

And the IC50 (S. aureus FPR3757; MRSA / USA300, Table 8, USA300 (FPR-3757), CA-MRSA)?
Its IC50 is 30.8 ± 5 nM.

What about the IC50 (S. aureus FPR3757; MRSA, Table 6, first experiment, FPR3757, MRSA (CA), positive control) of the same molecule?
Its IC50 is 20 nM.

And the IC50 (S. aureus FPR3757; MRSA, Table 7, second experiment, FPR3757, MRSA (CA), positive control)?
The IC50 was 28 nM.

What about the “Relative ratio to NP16 based on inhibition ratio” value (S. aureus USA300) of the same molecule?
Its value is 2.71.

And the IC50 ([2]; Staphylococcus aureus, all 10 tested strains, read-out: IC50 of staphyloxanthin production inhibition, range over tested strains)?
The IC50 was 1.2 to 70 nM.

What about the “bactericidal effect (reduction in optical density)” value ([2]; any concentration of IM032, up to 4,000 nM) of the same molecule?
Its value is “A clear bactericidal effect as evidenced by a reduction in optical density was not observed”.

What about the solubility ([3]; 1:1 Labrasol ALF/PEG300, organic solvent or mixture) of the same molecule?
Its solubility is 16.1 mg/mL (≈ 35.8 mM).

And the solubility ([3]; 1:1 Labrasol ALF/PEG400, organic solvent or mixture)?
The solubility was over 15 mg/mL.

And the solubility ([3]; Labrasol ALF, oil or lipid)?
The solubility was 11.8 mg/mL (≈ 26.3 mM).

What about the solubility ([3]; PEG300, organic solvent or mixture) of the same molecule?
Its solubility is over 20 mg/mL.

And the solubility ([3]; PEG400, organic solvent or mixture)?
The solubility was over 20 mg/mL.
